# Measurements taken from patent US10072026B2, “Crystalline form of 3-((1R,3s,5S)-3-((7-((5-methyl-1H-pyrazol-3-yl)amino)-1,6-naphthyridin-5-yl)amino)-8-azabicyclo[3.2.1]octan-8-yl)propanenitrile” (priority 2015, dated 2018).
# Where two headings read alike, the source gives them in different places.
# Tests used:
# [1] = system: IL-4 induced STAT6 phosphorylation in THP-1 human monocytic cells; assay: Cellular JAK potency assay, THP-1; details: for THP-1 IL4 pIC50: IL-4 induced STAT6 phosphorylation, THP-1 cells; for IC50: Homo sapiens, THP-1, read-out: THP-1 IL4 pIC50 (converted)
# [2] = biological target: JAK3 (Homo sapiens (Human), UniProt P52333); assay: LanthaScreen JAK biochemical assay (JAK3)
# [3] = biological target: JAK2 (Homo sapiens (Human), UniProt O60674); assay: LanthaScreen JAK biochemical assay (JAK2)
# Chain of JAK2 (O60674 whole entry): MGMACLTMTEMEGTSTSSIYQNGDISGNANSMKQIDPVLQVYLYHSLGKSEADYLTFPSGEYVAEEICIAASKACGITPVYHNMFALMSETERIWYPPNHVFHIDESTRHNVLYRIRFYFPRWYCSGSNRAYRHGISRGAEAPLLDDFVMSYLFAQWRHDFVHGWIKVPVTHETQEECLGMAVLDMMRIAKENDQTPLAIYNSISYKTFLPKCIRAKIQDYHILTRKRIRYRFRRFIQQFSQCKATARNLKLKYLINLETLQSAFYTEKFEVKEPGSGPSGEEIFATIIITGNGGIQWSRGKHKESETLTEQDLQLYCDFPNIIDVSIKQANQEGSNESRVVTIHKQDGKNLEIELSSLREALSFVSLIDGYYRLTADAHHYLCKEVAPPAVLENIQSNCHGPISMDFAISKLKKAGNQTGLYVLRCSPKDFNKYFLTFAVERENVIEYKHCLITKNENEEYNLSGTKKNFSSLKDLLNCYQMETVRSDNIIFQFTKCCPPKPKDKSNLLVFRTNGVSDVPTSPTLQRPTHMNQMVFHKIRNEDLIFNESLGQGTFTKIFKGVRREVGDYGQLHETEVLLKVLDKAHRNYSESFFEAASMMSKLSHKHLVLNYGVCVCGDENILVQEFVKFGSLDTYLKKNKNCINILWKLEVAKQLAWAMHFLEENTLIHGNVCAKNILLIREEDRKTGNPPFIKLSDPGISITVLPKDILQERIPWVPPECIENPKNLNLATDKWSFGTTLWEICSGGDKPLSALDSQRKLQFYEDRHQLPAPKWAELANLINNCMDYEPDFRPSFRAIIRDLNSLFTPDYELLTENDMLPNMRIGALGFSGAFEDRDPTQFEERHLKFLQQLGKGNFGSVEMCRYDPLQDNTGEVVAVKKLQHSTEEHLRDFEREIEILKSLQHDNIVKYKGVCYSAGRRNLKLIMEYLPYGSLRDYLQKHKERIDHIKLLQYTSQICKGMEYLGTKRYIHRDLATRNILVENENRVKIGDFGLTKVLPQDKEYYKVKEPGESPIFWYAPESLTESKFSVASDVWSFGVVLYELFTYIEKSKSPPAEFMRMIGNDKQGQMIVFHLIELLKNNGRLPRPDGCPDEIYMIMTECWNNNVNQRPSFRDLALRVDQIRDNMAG
# [4] = system: oxazolone-induced colitis; assay: Mouse model of oxazolone-induced colitis; assay type: in vivo, BALB/C mice; details: mouse, PO, 1, 3, and/or 10 mg/kg BID
# Protocol: Assay 7: Mouse Model of Oxazalone-Induced Colitis
# Oxazolone-induced colitis is an experimental model that has a histological resemblance to human ulcerative colitis (Heller et al. Immunology, 2002, 17, 629-638). Adult BALB/C mice from Harlan were used in the assay. On day 1, animals were lightly anesthetized with isoflurane and the hairs between the shoulder were carefully removed before oxazolone (4%, 150 μL, 4:1 acetone:olive oil formulation) or vehicle solution was slowly applied for skin sensitization. Seven days after skin sensitization, the mice were fasted overnight, anesthetized with isoflurane inhalation, and a 1 mL syringe equipped with a 3.5-F catheter, filled with oxazolone solution, was inserted carefully about 4 cm into the colon of the mouse. Following insertion, 50 μL of the oxazolone solution (1%, 1:1 ethanol:water formulation) was injected very slowly (over 30 sec using an injection pump) into the colon. The catheter was removed and the mice were held vertically (head down) for 2 min to ensure that the entire oxazolone solution remained inside the colon. Drug treatment (PO, BID or TID) or vehicle was initiated a day prior to the oxazolone intrarectal (IR) challenge. Two-day post oxazolone intrarectal challenge, the Disease Activity Index (DAI) was assessed by treatment-blinded experimenters for each mouse according to the criteria score: stool consistency score (0, normal; 2, loose; 4, diarrhea), gross bleeding score (0, absence; 2, blood tinged; 4, presence), and weight loss score (0, none; 1, 1%-5%; 2, 5%-10%; 3, 10%-20%; 4, more than 20%); DAI=average of (stool consistency score+gross bleeding score+weight loss score).
# Selected compounds of the invention were tested in the assay. Efficacy in the model is evidenced by a decrease in DAI score as compared with the score from vehicle treated animals.
# [5] = biological target: JAK1 (Homo sapiens (Human), UniProt P23458); assay: LanthaScreen JAK biochemical assay (JAK1); details: for Ki: read-out: JAK 1 (pKi) (converted)
# Chain of JAK1 (P23458 whole entry): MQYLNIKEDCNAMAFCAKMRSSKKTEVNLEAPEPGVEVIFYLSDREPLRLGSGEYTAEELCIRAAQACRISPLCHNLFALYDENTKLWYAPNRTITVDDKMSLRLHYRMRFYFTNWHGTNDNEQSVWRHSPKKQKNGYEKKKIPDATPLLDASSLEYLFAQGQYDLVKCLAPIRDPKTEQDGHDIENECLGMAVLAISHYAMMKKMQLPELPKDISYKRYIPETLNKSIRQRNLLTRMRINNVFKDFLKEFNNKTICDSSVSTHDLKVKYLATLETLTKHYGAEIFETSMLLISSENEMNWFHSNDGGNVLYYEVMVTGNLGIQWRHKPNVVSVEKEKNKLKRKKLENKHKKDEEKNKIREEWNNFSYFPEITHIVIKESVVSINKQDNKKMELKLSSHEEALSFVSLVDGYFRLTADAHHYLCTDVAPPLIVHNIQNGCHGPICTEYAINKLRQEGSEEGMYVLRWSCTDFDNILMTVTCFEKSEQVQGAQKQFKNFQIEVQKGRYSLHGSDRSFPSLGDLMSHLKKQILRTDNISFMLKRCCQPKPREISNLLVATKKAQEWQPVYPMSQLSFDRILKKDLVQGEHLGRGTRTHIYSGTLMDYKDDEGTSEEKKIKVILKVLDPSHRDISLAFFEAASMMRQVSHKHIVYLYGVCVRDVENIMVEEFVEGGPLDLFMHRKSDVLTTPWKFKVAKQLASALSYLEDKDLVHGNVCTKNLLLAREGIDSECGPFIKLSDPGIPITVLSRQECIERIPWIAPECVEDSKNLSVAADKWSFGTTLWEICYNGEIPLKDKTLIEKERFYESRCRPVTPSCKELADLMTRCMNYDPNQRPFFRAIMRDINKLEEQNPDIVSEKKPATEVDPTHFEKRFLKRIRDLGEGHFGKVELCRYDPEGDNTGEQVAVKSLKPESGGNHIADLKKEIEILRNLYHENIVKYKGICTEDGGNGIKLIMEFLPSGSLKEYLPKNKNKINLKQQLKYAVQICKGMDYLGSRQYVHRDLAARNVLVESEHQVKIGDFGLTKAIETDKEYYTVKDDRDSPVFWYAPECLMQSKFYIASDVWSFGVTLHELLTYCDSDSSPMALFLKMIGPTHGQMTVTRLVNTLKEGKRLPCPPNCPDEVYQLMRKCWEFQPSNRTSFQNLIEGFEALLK
# [6] = system: IL-13 induced STAT6 phosphorylation in BEAS-2B human lung epithelial cells; assay: AlphaScreen cellular JAK potency assay, BEAS-2B; details: for BEAS2B pIC50: IL-13 induced STAT6 phosphorylation, BEAS-2B cells; for IC50: Homo sapiens, BEAS-2B, read-out: BEAS2B pIC50 (converted)
# [7] = biological target: Tyk2 (Homo sapiens (Human), UniProt P29597); assay: LanthaScreen JAK biochemical assay (Tyk2); details: for Ki: read-out: Tyk 2 (pKi) (converted)
# Chain of Tyk2 (P29597 whole entry): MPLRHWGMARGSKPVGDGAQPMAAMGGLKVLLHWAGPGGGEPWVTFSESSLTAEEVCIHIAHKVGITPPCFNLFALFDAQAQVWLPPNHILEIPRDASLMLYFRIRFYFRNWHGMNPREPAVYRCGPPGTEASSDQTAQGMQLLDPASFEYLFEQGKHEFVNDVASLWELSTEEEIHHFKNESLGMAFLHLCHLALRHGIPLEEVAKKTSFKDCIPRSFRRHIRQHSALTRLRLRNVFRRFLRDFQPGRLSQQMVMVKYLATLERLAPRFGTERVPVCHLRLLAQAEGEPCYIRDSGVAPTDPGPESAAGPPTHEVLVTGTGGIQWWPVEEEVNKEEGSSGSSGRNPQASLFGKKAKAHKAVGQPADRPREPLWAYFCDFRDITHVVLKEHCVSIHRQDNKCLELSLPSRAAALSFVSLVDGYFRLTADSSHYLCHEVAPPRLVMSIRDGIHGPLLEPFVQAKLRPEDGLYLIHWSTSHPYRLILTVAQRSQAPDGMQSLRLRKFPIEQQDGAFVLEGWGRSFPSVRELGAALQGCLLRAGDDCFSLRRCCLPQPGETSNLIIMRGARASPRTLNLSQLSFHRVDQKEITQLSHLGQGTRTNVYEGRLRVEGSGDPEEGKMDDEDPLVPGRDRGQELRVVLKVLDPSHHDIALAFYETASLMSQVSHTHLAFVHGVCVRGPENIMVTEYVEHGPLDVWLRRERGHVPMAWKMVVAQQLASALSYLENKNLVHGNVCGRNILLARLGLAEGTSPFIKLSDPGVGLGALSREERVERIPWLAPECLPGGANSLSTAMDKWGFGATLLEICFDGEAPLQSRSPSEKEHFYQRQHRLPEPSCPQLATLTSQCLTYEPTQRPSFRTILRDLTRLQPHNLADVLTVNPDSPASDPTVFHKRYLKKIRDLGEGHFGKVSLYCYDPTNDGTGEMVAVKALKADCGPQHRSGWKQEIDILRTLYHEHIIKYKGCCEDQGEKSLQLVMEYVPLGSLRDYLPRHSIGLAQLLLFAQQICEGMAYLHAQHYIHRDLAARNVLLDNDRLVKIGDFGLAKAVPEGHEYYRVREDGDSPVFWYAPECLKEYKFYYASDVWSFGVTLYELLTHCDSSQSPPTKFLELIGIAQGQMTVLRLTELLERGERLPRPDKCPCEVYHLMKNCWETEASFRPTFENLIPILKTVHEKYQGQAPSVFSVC
# [8] = read-out: JAK 2 (pKi) (converted)
SMILES,THP-1 IL4 pIC50 [1],JAK 3 (pKi) [2],JAK 2 (pKi) [3],decrease in DAI score as compared with vehicle treated animals [4],JAK 1 (pKi) [5],BEAS2B pIC50 [6],Tyk 2 (pKi) [7],IC50 [1] [nM],"Ki [3, 8] [nM]",IC50 [6] [nM],Ki [5] [nM],Ki [3] [nM],Ki [7] [nM]
Cc1cc(Nc2cc3ncccc3c(N[C@@H]3C[C@H]4CCC[C@@H](C3)N4CC(=O)N(C)C)n2)n[nH]1 [Example 1-38],B (B represents a pEC50 value between 6.7 and 7.5 (EC50 between 200 nM and 32 nM)),C (C represents a pKi value between 7 and 9 (Ki between 100 nM and 1 nM)),B (B represents a pKi value between 9 and 10 (Ki between 1 nM and 0.1 nM)),statistically significant decrease,B (B represents a pKi value between 9 and 10 (Ki between 1 nM and 0.1 nM)),,,,,,,,
CCC(C)C(=O)N1C2CCC1CC(Nc1nc(Nc3cc(C)[nH]n3)cc3ncccc13)C2 (stereo not drawn) [Example 2-6],B (B represents a pEC50 value between 6.7 and 7.5 (EC50 between 200 nM and 32 nM)),C (C represents a pKi value between 7 and 9 (Ki between 100 nM and 1 nM)),B (B represents a pKi value between 9 and 10 (Ki between 1 nM and 0.1 nM)),did not exhibit a statistically significant decrease,B (B represents a pKi value between 9 and 10 (Ki between 1 nM and 0.1 nM)),A (A represents a pEC50 value≥7.5 (EC50≤32 nM)),C (C represents a pKi value between 7 and 9 (Ki between 100 nM and 1 nM)),,,,,,
Cc1cc(Nc2cc3ncccc3c(NC3CC4CCCC(C3)N4C(=O)C(C)O)n2)n[nH]1 (stereo not drawn) [Example 2-16],B (B represents a pEC50 value between 6.7 and 7.5 (EC50 between 200 nM and 32 nM)),C (C represents a pKi value between 7 and 9 (Ki between 100 nM and 1 nM)),B (B represents a pKi value between 9 and 10 (Ki between 1 nM and 0.1 nM)),did not exhibit a statistically significant decrease,B (B represents a pKi value between 9 and 10 (Ki between 1 nM and 0.1 nM)),B (B represents a pEC50 value between 6.7 and 7.5 (EC50 between 200 nM and 32 nM)),B (B represents a pKi value between 9 and 10 (Ki between 1 nM and 0.1 nM)),,,,,,
CCOCC(=O)N1[C@@H]2CCC[C@H]1C[C@H](Nc1nc(Nc3cc(C)[nH]n3)cc3ncccc13)C2 [Example 2-17],B (B represents a pEC50 value between 6.7 and 7.5 (EC50 between 200 nM and 32 nM)),C (C represents a pKi value between 7 and 9 (Ki between 100 nM and 1 nM)),B (B represents a pKi value between 9 and 10 (Ki between 1 nM and 0.1 nM)),did not exhibit a statistically significant decrease,B (B represents a pKi value between 9 and 10 (Ki between 1 nM and 0.1 nM)),A (A represents a pEC50 value≥7.5 (EC50≤32 nM)),,,,,,,
Cc1cc(Nc2cc3ncccc3c(N[C@@H]3C[C@H]4CCC[C@@H](C3)N4C(=O)C(C)(C)CO)n2)n[nH]1 [Example 2-22],B (B represents a pEC50 value between 6.7 and 7.5 (EC50 between 200 nM and 32 nM)),C (C represents a pKi value between 7 and 9 (Ki between 100 nM and 1 nM)),B (B represents a pKi value between 9 and 10 (Ki between 1 nM and 0.1 nM)),did not exhibit a statistically significant decrease,B (B represents a pKi value between 9 and 10 (Ki between 1 nM and 0.1 nM)),A (A represents a pEC50 value≥7.5 (EC50≤32 nM)),B (B represents a pKi value between 9 and 10 (Ki between 1 nM and 0.1 nM)),,,,,,
Cc1cc(Nc2cc3ncccc3c(N[C@@H]3C[C@H]4CCC[C@@H](C3)N4C(=O)Cc3ccccc3)n2)n[nH]1 [Example 2-24],A (A represents a pEC50 value≥7.5 (EC50≤32 nM)),,B (B represents a pKi value between 9 and 10 (Ki between 1 nM and 0.1 nM)),did not exhibit a statistically significant decrease,B (B represents a pKi value between 9 and 10 (Ki between 1 nM and 0.1 nM)),A (A represents a pEC50 value≥7.5 (EC50≤32 nM)),,,,,,,
"Cc1cc(Nc2cc3ncccc3c(N[C@@H]3C[C@H]4CC[C@@H](C3)N4S(=O)(=O)c3cccnc3)n2)n[nH]1 [Example 3, N^7-(5-methyl-1H-pyrazol-3-yl)-N^5-((1R,3s,5S)-8-(pyridin-3-ylsulfonyl)-8-azabicyclo[3.2.1]octan-3-yl)-1,6-naphthyridine-5,7-diamine]",,,,statistically significant decrease,,,,31.6 to 200,0.1 to 1,< 31.6,0.1 to 1,,
Cc1cc(Nc2cc3ncccc3c(N[C@@H]3C[C@H]4CC[C@@H](C3)N4S(=O)(=O)CC(C)C)n2)n[nH]1 [Example 4-3],A (A represents a pEC50 value≥7.5 (EC50≤32 nM)),C (C represents a pKi value between 7 and 9 (Ki between 100 nM and 1 nM)),B (B represents a pKi value between 9 and 10 (Ki between 1 nM and 0.1 nM)),did not exhibit a statistically significant decrease,B (B represents a pKi value between 9 and 10 (Ki between 1 nM and 0.1 nM)),A (A represents a pEC50 value≥7.5 (EC50≤32 nM)),B (B represents a pKi value between 9 and 10 (Ki between 1 nM and 0.1 nM)),,,,,,
Cc1cc(Nc2cc3ncccc3c(N[C@@H]3C[C@H]4CC[C@@H](C3)N4S(=O)(=O)C3CC3)n2)n[nH]1 [Example 4-4],,,,did not exhibit a statistically significant decrease,,,,< 31.6,,< 31.6,0.1 to 1,0.1 to 1,
COCCS(=O)(=O)N1[C@@H]2CCC[C@H]1C[C@H](Nc1nc(Nc3cc(C)[nH]n3)cc3ncccc13)C2 [Example 4-19],A (A represents a pEC50 value≥7.5 (EC50≤32 nM)),C (C represents a pKi value between 7 and 9 (Ki between 100 nM and 1 nM)),,did not exhibit a statistically significant decrease,,A (A represents a pEC50 value≥7.5 (EC50≤32 nM)),B (B represents a pKi value between 9 and 10 (Ki between 1 nM and 0.1 nM)),,,,,,
Cc1cc(Nc2cc3nc(CO)ccc3c(N[C@@H]3C[C@H]4CC[C@@H](C3)N4CCC#N)n2)n[nH]1 [Example 5-11],A (A represents a pEC50 value≥7.5 (EC50≤32 nM)),,A (A represents a pKi value≥10 (Ki≤0.1 nM)),did not exhibit a statistically significant decrease,,B (B represents a pEC50 value between 6.7 and 7.5 (EC50 between 200 nM and 32 nM)),,,,,,,
"CCS(=O)(=O)N1[C@@H]2CC[C@H]1C[C@H](Nc1nc(Nc3cc(C)[nH]n3)cc3ncccc13)C2 [Example 7, N^5-((1R,3s,5S)-8-(ethylsulfonyl)-8-azabicyclo[3.2.1]octan-3-yl)-N^7-(5-methyl-1H-pyrazol-3-yl)-1,6-naphthyridine-5,7-diamine]",,,,did not exhibit a statistically significant decrease,,,,< 31.6,0.1 to 1,< 31.6,,,0.1 to 1
"Cc1cc(Nc2cc3ncccc3c(N[C@@H]3C[C@H]4CCC[C@@H](C3)N4S(=O)(=O)c3ccccc3)n2)n[nH]1 [Example 9, N^7-(5-methyl-1H-pyrazol-3-yl)-N^5-((1R,3s,5S)-9-(phenylsulfonyl)-9-azabicyclo[3.3.1]nonan-3-yl)-1,6-naphthyridine-5,7-diamine]",,,,did not exhibit a statistically significant decrease,,,,< 31.6,0.1 to 1,< 31.6,0.1 to 1,,0.1 to 1
"Cc1cc(Nc2cc3ncccc3c(N[C@@H]3C[C@H]4CC[C@@H](C3)N4S(=O)(=O)N3CC(C#N)C3)n2)n[nH]1 [Example 13, 1-(((1R,3s,5S)-3-((7-((5-methyl-1H-pyrazol-3-yl)amino)-1,6-naphthyridin-5-yl)amino)-8-azabicyclo[3.2.1]octan-8-yl)sulfonyl)azetidine-3-carbonitrile]",,,,did not exhibit a statistically significant decrease,,,,31.6 to 200,,31.6 to 200,,,0.1 to 1
